Molecules are shown by their SMILES.

For the experiment, the target named is T1, FAK enzyme (6 His tagged kinase domain, GenBank NP—722560) (Homo sapiens, UniProt Q05397).
T1 construct: 6 His; made in house; host or cells: insect cell culture infected with baculovirus
T1 sequence (Q05397 422-680 limits assumed): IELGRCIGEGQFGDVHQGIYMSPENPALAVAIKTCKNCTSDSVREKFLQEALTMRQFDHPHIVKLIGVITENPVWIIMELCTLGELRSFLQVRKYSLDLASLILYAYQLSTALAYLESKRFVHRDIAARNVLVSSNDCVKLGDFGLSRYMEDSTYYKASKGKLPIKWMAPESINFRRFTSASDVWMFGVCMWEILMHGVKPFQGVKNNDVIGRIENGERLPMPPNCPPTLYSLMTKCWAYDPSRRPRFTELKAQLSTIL
Briefly: In vitro enzyme assay (a): sandwich ELISA of FAK tyrosine kinase activity on polyGAT peptide, TMB colorimetric endpoint. Type of experiment: biochemical. Conditions: in vitro Enzyme Assay test (a); ATP at Km; geometric mean of n > 1 measurements, values marked * tested once. On the procedure: (a) In Vitro Enzyme Assay
A sandwich ELISA assay with a 3,3′,5,5′-tetramethyl benzidine (TMB) colorimetric endpoint was used in order to determine the level of effect of selected compounds on inhibition of FAK protein tyrosine kinase enzyme activity. A synthetic tyrosine containing peptide is coated onto a plastic surface, the level of phosphorylation of these tyrosine residues by the kinase enzyme in the presence of inhibitors is measured using an antibody that binds specifically to phosphorylated tyrosine residues. The amount of antibody bound to substrate is proportional to the level of enzyme catalysis.
Assay Protocol to Identify Inhibitors of Focal Adhesion Kinase (FAK).
A PlateMate Plus™ 384 automated liquid handling unit with a 100 μl disposable tip head was used to make all the non compound reagent additions and a Tecan 384PW plate washer with 384 head was used for all wash steps. Initially Matrix 384 well polystyrene plates (Cat #:4311) were coated with 40 μl/well of a 0.0375 mg/ml solution of synthetic poly peptide (polyGAT, Sigma Cat #:P3899) dissolved in phosphate buffered saline (PBS). Plates were stored overnight at 4° C. Immediately before use the coating solution was aspirated out and each well washed with 2×100 μl of PBS+0.05% Tween 20. To remove surplus phosphate, the wells were then washed with 2×100 μl 50 mM HEPES buffer pH 7.4. Plates were blotted dry before the addition of compounds. Compounds were tested over a 12 point dose range, a Labcyte Echo 550 was used to dispense compounds in nl volumes and back fill with DMSO. The final concentration of compound in the assay was dependent on the starting concentration of compound. For a 10 mM stock compound the final assay dose ranged from 100 μM down to […]. Control wells containing 120 nl DMSO (Max) or 120 nl of 10 mM staurosporine (LC Laboratories, Boston, USA Cat #: S-9300) (Min) were included in each plate. 10 ul of 5% dimethyl sulfoxide v/v (DMSO, Fisher Scientific) was added to each well immediately prior to addition of 10 μl of a co-factor solution containing 80 mM MgCl2 (Sigma Cat #: M1028); 80 mM MnCl2 (Sigma Cat #: M1787); ATP at a concentration calculated to enable the initial reaction velocity to progress at half the maximum velocity (Km for ATP) (Sigma Cat #:A7699). A final addition of 20 μl of enzyme solution containing 100 mM HEPES pH7.4; 0.2 mM sodium vanadate (Sigma Cat #:S6508); 0.2 g/l bovine serum albumin (BSA, Sigma Cat #: A7888); 0.2 mM dithioreitol (Sigma Cat #: 5545); 0.1% Triton X100 (Sigma Cat #:X100); FAK enzyme (20 μl/ml) was made to each well to start the assay running FAK enzyme was generated from an insect culture infected with baculo virus containing the DNA sequence encoding the 6 His tagged kinase domain (GenBank NP_722560).
Plates were left at room temperature for 25 minutes before 10 μl of 500 mM ethylenediaminetetraacetic acid (EDTA) was added to stop the assay and the wells were immediately washed 3×100 μl with PBS+0.05% Tween 20. A 4G10 antibody (Millipore Cat #: 16-105; 16-184) with a directly conjugated horse radish peroxidase (HRP) was used to detect the phosphorylation of the substrate by the FAK. 40 μl of PBS+0.05% Tween 20 containing 0.5% BSA and 0.1 μl/ml antibody was added to each well and left for 1 hour at room temperature to allow the antibody to bind. After this period the wells were again washed with 3×100 μl of PBS+0.05% Tween 20. TMB (Sigma Cat #: T2885) was used as a substrate for the HRP. Phosphate-citrate buffer was made up using capsules provided by Sigma (Cat #: P4922) following the manufacturers guidelines. TMB was dissolved at a concentration of 1 mg/ml in DMSO and let down to a final concentration of 0.05 mg/ml with the phosphor-citrate buffer. 40 μl of the TMB solution was added to each assay well and left for 30 minutes for the blue colour to develop. […]
Regarding `CNC(=O)c1ccccc1Nc1cc(Nc2cn(C)nc2C)ncc1Cl` [Example 3.14, 2-[[5-chloro-2-[(1,3-dimethylpyrazol-4-yl)amino]-4-pyridyl]amino]-N-methyl-benzamide], the IC50 was determined as 45 nM.

`CNC1CCN(C(=O)Cn2cc(Nc3cc(Nc4cccc5c4C(=O)N(C)CC5)c(F)cn3)cn2)C1` (stereo not shown) [Example 4.27, 8-[[5-Fluoro-2-[[1-[2-(3-methylaminopyrrolidin-1-yl)-2-oxo-ethyl]pyrazol-4-yl]amino]-4-pyridyl]amino]-2-methyl-3,4-dihydroisoquinolin-1-one] yielded an IC50 of 72 nM. In the case of `CNC(=O)c1ccccc1Nc1cc(Nc2cc(C3CC3)nn2C)ncc1C(F)(F)F` [Example 8.07, 2-[[2-[(5-cyclopropyl-2-methyl-pyrazol-3-yl)amino]-5-(trifluoromethyl)-4-pyridyl]amino]-N-methyl-benzamide], inhibition was half-maximal at 26 nM (IC50). The same measure for `CNC(=O)c1cc(SC)ccc1Nc1cc(Nc2cn(C)nc2C)ncc1C(F)(F)F` [Example 10.10, 2-[[2-[(1,3-dimethylpyrazol-4-yl)amino]-5-(trifluoromethyl)-4-pyridyl]amino]-N-methyl-5-methylsulfanyl-benzamide]: 11 nM; for `CNC(=O)c1ccccc1Nc1cc(Nc2cnn(C(C)C)c2)ncc1C(F)(F)F` [Example 8.11, 2-[[2-[(1-isopropylpyrazol-4-yl)amino]-5-(trifluoromethyl)-4-pyridyl]amino]-N-methyl-benzamide]: 34 nM; for `CNC(=O)c1cc(OC)ccc1Nc1cc(Nc2cn(C)nc2C)ncc1C(F)(F)F` [Example 10.01, 2-[[2-[(1,3-dimethylpyrazol-4-yl)amino]-5-(trifluoromethyl)-4-pyridyl]amino]-5-methoxy-N-methyl-benzamide]: 8 nM. `CCn1cc(Nc2cc(Nc3ccccc3C(=O)NC)c(C(F)(F)F)cn2)cn1` [Example 8.05, 2-[[2-[(1-ethylpyrazol-4-yl)amino]-5-(trifluoromethyl)-4-pyridyl]amino]-N-methyl-benzamide] showed an IC50 of 14 nM. `Cc1nn(C)cc1Nc1cc(Nc2cccc3c2C(=O)N(C)C3)c(Cl)cn1` [Example 3.35, 7-[[5-Chloro-2-[(1,3-dimethylpyrazol-4-yl)amino]-4-pyridyl]amino]-2-methyl-isoindolin-1-one] had a 50% inhibitory concentration (IC50) of 36 nM. On to `CONC(=O)c1ccccc1Nc1cc(Nc2cc(C)n(C)n2)ncc1Cl` [Example 3.02, 2-[[5-chloro-2-[(1,5-dimethylpyrazol-3-yl)amino]-4-pyridyl]amino]-N-methoxy-benzamide], for which inhibition was half-maximal at 41 nM (IC50). To `CNC(=O)c1ccccc1Nc1cc(Nc2cnn(CC(=O)N(C)CCOC)c2)ncc1F` [Example 4.03] belongs 2120 nM.

Compound `Cc1nn(CCO)cc1Nc1cc(Nc2cccc3c2C(=O)N(C)CC3)c(Cl)cn1` [Example 13.05, 8-[[5-chloro-2-[[1-(2-hydroxyethyl)-3-methyl-pyrazol-4-yl]amino]-4-pyridyl]amino]-2-methyl-3,4-dihydroisoquinolin-1-one] came in with an IC50 of 4 nM. Compound `CNC(=O)c1ccccc1Nc1cc(Nc2cn(C)nc2OC)ncc1C(F)(F)F` [Example 12.12, 2-[[2-[(3-methoxy-1-methyl-pyrazol-4-yl)amino]-5-(trifluoromethyl)-4-pyridyl]amino]-N-methyl-benzamide] registered an IC50 of 3 nM. `CNC(=O)c1ccccc1Nc1cc(Nc2cn(C)nc2C)ncc1C#N` [Example 1.01, 2-[[5-Cyano-2-[(1,3-dimethylpyrazol-4-yl)amino]-4-pyridyl]amino]-N-methyl-benzamide] returned an IC50 of 65 nM. Consider `CONC(=O)c1cc(F)ccc1Nc1cc(Nc2cn(C)nc2C)ncc1C(F)(F)F` [Example 16.02, 2-[[2-[(1,3-dimethylpyrazol-4-yl)amino]-5-(trifluoromethyl)-4-pyridyl]amino]-5-fluoro-N-methoxy-benzamide], for which half-maximal inhibition (IC50) was put at 6 nM. `CNC(=O)c1ccccc1Nc1cc(Nc2cc(C)n(C)n2)ncc1C(F)(F)F` [Example 2.01, 2-[[2-[(1,5-Dimethylpyrazol-3-yl)amino]-5-(trifluoromethyl)-4-pyridyl]amino]-N-methyl-benzamide] returned an IC50 of 19 nM. The same measure for `CNC(=O)c1ccccc1Nc1cc(Nc2cnn(C3CCOCC3)c2)ncc1Cl` [Example 3.15, 2-[[5-chloro-2-[(1-tetrahydropyran-4-ylpyrazol-4-yl)amino]-4-pyridyl]amino]-N-methyl-benzamide]: 670 nM; for `CNC(=O)c1ccccc1Nc1cc(Nc2cnn(CC(=O)N3CCCC3)c2)ncc1Cl` [Example 3.03, 2-[[5-Chloro-2-[[1-(2-oxo-2-pyrrolidin-1-yl-ethyl)pyrazol-4-yl]amino]-4-pyridyl]amino]-N-methyl-benzamide]: 80 nM; for `CNC(=O)c1ccccc1Nc1cc(Nc2cc(OC)nn2C)ncc1Cl` [Example 3.08, 2-[[5-Chloro-2-[(5-methoxy-2-methylpyrazol-3-yl)amino]pyridin-4-yl]amino]-N-methylbenzamide]: 60 nM. To `CNC(=O)c1ccccc1Nc1cc(Nc2ccnn2C)ncc1C(F)(F)F` [Example 8.01, N-methyl-2-[[2-[(2-methylpyrazol-3-yl)amino]-5-(trifluoromethyl)-4-pyridyl]amino]benzamide] belongs 6 nM.

The compound `CN1CCc2cccc(Nc3cc(Nc4cnn(CC(=O)N5CCOCC5)c4)ncc3Cl)c2C1=O` [Example 3.27, 8-[[5-chloro-2-[[1-(2-morpholino-2-oxo-ethyl)pyrazol-4-yl]amino]-4-pyridyl]amino]-2-methyl-3,4-dihydroisoquinolin-1-one] registered a concentration for half-maximal inhibition (IC50) of 11 nM.

`Cc1nn(C)cc1Nc1cc(Nc2ccc(N3CCN(C(C)C)CC3)c3c2C(=O)N(C)C3)c(C#N)cn1` [Example 1.09, 6-[(1,3-Dimethylpyrazol-4-yl)amino]-4-[[7-(4-isopropylpiperazin-1-yl)-2-methyl-3-oxo-isoindolin-4-yl]amino]pyridine-3-carbonitrile] registered an IC50 of 19 nM. In turn, `COc1nn(C)cc1Nc1cc(Nc2cccc3c2C(=O)N(C)CC3)c(Cl)cn1` [Example 12.06, 8-[[5-chloro-2-[(3-methoxy-1-methyl-pyrazol-4-yl)amino]-4-pyridyl]amino]-2-methyl-3,4-dihydroisoquinolin-1-one] showed an IC50 of 8 nM. `CNC(=O)c1cc(F)ccc1Nc1cc(Nc2cn(C)nc2C)ncc1Cl` [Example 3.41, 2-[[5-chloro-2-[(1,3-dimethylpyrazol-4-yl)amino]-4-pyridyl]amino]-5-fluoro-N-methyl-benzamide] showed an IC50 of 87 nM. To `CN1CCN(c2[nH]nc(Nc3cc(Nc4cccc5c4C(=O)N(C)CC5)c(F)cn3)c2C#N)CC1` [Example 4.29, 3-[[5-Fluoro-4-[(2-methyl-1-oxo-3,4-dihydroisoquinolin-8-yl)amino]-2-pyridyl]amino]-5-(4-methylpiperazin-1-yl)-1H-pyrazole-4-carbonitrile] belongs 22700 nM. Compound `CN1CCN(C(=O)Cn2cc(Nc3cc(Nc4cccc5c4C(=O)N(C)CC5)c(F)cn3)cn2)CC1` [Example 4.26, 8-[[5-fluoro-2-[[1-[2-(4-methylpiperazin-1-yl)-2-oxo-ethyl]pyrazol-4-yl]amino]-4-pyridyl]amino]-2-methyl-3,4-dihydroisoquinolin-1-one] gave an IC50 of 199 nM.

The IC50 is the concentration that inhibits the measured activity by half. The low end stands for inhibition by little substance, the high end for a need for much substance.

The record behind these values is US8569298B2, “Pyridine compounds” (Astrazeneca AB, priority 2008, dated 2013).
